Assay results as given in patent publication US11834453B2, “Substituted pyrimido[5,4-d]pyrimidines as HER2 inhibitors” (Array BioPharma Inc., priority 2020, dated 2023).
Read-outs that look alike come from different tables or passages of the source.

Legend:
[1] = biological target: ErbB2 with Exon 20 YVMA insertion (HER2-YVMA) (Homo sapiens (Human), UniProt P04626, INS775YVMA); experiment: Cellular phosphorylation assay, constitutive ErbB2 phosphorylation (Y1196) in engineered NIH 3T3 cells, Assay 4; assay type: cell-based
How it was run: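 In-cell Western in NIH 3T3 cells carrying ErbB2 exon 20 YVMA insertion, with no ligand stimulation. One hour compound exposure at 37 °C before fixation and anti-pY1196 plus GAPDH staining with dual-wavelength fluorescence. IC50 derived after GAPDH normalization.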

[2] = biological target: ErbB2 insYVMA (HER2-YVMA, SEQ ID NO: 2) (Homo sapiens, UniProt P04626, INS775YVMA/P1170A); experiment: biochemical; settings: ErbB2 insYVMA enzyme assay
EGFR = EGFR (Homo sapiens (Human), UniProt P00533); experiment: ErbB enzyme assay (CisBio HTRF KinEASE-TK), Assay 3; assay type: biochemical
How it was run: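 IC50 was taken where a 4-parameter logistic fit crossed 50 percent of control (DMSO 100, pre-quenched 0), read by ratiometric HTRF. Reactions ran 30 min at 22 °C with 1 mM ATP and 250 nM TK-substrate biotin in pH 7.4 HEPES buffer with MgCl2, Triton X-100 and 2% DMSO.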

MDR1 (P-gp) = MDR1 (P-gp) (Homo sapiens (Human), UniProt P08183); experiment: MDR1 transfected LLC-PK1 permeability/efflux, Assay 6; settings: pig
EGFR wild type (EGFR WT) = EGFR wild type (EGFR WT) (Homo sapiens (Human), UniProt P00533); experiment: Cellular phosphorylation assay, EGF-stimulated EGFR phosphorylation in engineered NIH 3T3 cells, Phospho-EGFR DuoSet IC ELISA, Assay 5; assay type: cell-based
How it was run: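 Phospho-EGFR ELISA on lysates of engineered NIH 3T3 EGFR WT cells, IC50 derived from concentration curves. Cells plated at 20,000/well overnight, given compound dilutions 1 h at 37 °C, then rEGF 100 ng/ml for a further 10 min before lysis.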

ErbB2 WT = ErbB2 WT (Homo sapiens (Human), UniProt P04626); experiment: ErbB enzyme assay (CisBio HTRF KinEASE-TK), Assay 2; assay type: biochemical
How it was run: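 Readout is HTRF KinEASE-TK, using Sa-XL665 and cryptate antibody for 1 h at 22 °C, as percent of control between DMSO-only (100) and pre-quenched (0) reactions. The kinase reaction runs 30 min at 22 °C with 1 mM ATP and 250 nM biotinylated TK substrate, in HEPES pH 7.4 with MgCl2 and 2% DMSO.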

BCRP = BCRP (Homo sapiens (Human), UniProt Q9UNQ0); experiment: BCRP transfected MDCKII canine Mdr1 knockout permeability/efflux, Assay 9; settings: dog, Assay 9 Pe Ratio, efflux ratio Papp(B-A)/Papp(A-B), BCRP transfected MDCKII canine Mdr1 knockout
[3] = LLC-PK1, Assay 6 Pe Ratio, efflux ratio Papp(B-A)/Papp(A-B), MDR1 transfected LLC-PK1

Chain of MDR1 (P-gp) (P08183 whole entry): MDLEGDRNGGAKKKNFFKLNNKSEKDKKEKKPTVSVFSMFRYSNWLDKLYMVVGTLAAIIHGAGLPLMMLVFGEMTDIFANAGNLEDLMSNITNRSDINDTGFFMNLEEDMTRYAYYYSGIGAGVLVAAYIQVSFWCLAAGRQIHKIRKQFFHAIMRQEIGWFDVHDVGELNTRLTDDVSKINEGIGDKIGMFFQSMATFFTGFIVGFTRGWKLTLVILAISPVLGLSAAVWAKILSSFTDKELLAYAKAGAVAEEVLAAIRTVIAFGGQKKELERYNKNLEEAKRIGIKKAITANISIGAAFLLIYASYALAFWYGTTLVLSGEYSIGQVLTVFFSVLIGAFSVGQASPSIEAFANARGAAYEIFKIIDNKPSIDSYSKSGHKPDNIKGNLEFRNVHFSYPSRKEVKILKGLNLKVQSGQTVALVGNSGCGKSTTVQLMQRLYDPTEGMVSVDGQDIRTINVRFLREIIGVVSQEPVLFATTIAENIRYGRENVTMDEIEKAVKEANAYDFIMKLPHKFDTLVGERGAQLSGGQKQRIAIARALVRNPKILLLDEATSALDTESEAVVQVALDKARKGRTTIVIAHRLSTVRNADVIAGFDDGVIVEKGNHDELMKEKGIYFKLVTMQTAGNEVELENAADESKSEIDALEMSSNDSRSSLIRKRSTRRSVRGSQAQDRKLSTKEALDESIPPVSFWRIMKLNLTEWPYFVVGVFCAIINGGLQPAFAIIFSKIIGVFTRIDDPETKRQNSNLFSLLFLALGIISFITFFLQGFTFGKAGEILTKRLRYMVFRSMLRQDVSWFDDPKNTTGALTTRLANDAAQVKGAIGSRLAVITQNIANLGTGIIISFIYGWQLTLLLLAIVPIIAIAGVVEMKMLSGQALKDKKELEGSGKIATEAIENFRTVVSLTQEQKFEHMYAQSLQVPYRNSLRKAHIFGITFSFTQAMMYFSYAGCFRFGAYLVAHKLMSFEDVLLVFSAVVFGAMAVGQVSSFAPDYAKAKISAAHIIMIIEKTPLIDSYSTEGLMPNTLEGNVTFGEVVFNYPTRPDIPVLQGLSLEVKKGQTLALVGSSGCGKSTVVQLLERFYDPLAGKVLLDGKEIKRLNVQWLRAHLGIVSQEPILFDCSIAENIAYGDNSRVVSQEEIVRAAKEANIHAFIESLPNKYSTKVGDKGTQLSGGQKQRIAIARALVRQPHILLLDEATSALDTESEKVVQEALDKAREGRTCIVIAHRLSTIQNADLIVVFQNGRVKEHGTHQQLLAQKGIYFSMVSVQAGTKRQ
Chain of EGFR (P00533 25-1210): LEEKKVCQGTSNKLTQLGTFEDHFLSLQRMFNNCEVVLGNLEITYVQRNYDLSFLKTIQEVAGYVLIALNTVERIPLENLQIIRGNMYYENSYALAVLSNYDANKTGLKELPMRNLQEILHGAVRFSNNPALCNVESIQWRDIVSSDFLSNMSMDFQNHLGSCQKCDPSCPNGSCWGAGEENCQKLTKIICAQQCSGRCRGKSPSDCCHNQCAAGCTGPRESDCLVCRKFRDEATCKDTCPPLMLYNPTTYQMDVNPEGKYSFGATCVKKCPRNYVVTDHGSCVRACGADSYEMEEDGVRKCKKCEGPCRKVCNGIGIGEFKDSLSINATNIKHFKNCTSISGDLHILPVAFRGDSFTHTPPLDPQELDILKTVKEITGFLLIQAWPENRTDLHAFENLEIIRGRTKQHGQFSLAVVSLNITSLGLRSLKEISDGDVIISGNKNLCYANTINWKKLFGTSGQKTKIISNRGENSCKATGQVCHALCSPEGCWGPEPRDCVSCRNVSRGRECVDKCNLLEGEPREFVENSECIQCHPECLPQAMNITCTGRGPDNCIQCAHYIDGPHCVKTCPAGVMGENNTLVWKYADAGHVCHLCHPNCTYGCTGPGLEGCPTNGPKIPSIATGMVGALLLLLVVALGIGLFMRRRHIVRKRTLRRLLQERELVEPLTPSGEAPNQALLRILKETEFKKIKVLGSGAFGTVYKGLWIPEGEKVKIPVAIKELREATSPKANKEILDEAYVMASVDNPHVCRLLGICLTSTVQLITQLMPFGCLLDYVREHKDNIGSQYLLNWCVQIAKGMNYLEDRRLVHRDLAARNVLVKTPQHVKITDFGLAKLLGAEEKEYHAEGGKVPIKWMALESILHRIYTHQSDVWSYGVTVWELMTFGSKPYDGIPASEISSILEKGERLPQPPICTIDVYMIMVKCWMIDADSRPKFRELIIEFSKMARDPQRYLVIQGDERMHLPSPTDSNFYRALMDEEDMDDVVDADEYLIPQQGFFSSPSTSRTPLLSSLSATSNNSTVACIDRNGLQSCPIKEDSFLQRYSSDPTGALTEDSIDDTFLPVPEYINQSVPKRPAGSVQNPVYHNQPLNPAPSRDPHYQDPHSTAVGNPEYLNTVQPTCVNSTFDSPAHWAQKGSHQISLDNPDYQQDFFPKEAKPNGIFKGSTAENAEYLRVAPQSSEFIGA
Chain of EGFR wild type (EGFR WT) (P00533 25-1210): as above
Chain of ErbB2 insYVMA (HER2-YVMA, SEQ ID NO: 2) (P04626 with tags, fused parts or gaps INS775YVMA/P1170A limits assumed): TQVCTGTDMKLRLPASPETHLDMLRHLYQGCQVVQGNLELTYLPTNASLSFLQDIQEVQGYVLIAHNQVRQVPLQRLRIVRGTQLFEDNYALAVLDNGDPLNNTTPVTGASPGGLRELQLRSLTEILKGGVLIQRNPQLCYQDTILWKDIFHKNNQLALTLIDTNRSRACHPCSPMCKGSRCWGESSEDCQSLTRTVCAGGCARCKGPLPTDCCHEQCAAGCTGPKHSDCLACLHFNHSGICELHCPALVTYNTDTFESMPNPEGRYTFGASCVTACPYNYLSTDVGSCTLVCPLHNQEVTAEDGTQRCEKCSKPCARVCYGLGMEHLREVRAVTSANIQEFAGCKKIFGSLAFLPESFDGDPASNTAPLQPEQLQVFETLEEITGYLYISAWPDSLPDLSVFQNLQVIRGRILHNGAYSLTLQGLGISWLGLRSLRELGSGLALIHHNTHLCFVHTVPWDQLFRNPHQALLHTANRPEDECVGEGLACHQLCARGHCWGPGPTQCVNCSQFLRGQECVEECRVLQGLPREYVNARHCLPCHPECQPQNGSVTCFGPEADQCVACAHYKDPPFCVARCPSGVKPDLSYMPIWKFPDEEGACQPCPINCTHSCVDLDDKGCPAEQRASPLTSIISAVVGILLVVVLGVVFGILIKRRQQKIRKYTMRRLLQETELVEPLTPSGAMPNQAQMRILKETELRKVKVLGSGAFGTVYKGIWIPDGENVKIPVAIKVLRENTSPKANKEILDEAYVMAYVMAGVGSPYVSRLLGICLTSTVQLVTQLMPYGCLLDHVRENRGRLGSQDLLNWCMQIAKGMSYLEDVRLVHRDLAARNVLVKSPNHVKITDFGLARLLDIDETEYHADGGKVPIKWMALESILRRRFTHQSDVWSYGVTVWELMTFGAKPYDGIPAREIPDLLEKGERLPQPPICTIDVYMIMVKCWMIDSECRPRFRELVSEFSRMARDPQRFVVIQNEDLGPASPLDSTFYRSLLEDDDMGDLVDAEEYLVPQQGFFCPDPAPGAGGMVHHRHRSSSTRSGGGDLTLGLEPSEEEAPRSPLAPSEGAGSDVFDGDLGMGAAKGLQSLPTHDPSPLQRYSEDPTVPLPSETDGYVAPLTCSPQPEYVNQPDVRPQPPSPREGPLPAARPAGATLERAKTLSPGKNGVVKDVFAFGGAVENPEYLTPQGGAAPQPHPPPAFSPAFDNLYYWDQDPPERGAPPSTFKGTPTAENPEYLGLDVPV

Compound	IC50 [1]	IC50 ([2]; read-out: Assay 1 IC50)	IC50 (EGFR)	efflux ratio at 2 h, 1 μM (MDR1 (P-gp); [3])	IC50 (EGFR wild type (EGFR WT))	IC50 ([2]; Assay 1 IC50 (nM))	IC50 (ErbB2 WT)	efflux ratio at 2 h, 1 μM (MDR1 (P-gp); LLC-PK1)	efflux ratio at 2 h, 1 μM (BCRP)
Cc1cc(Nc2ncnc3cnc(N(C)CCO)nc23)ccc1Oc1ccc2c(c1)ncn2C [Example 208, 2-(methyl(8-((3-methyl-4-((1-methyl-1H-benzo[d]imidazol-5-yl)oxy)phenyl)amino)pyrimido[5,4-d]pyrimidin-2-yl)amino)ethan-1-ol]	6 nM	17.3 nM	3550 nM	11.2	≥ 5000 nM	–	–	–	–
Cc1cc(Nc2ncnc3cnc(N4CC5CC(C4)O5)nc23)ccc1Oc1ccc2c(c1)ncn2C.O=C(O)C(F)(F)F [Example 69, 6-(6-oxa-3-azabicyclo[3.1.1]heptan-3-yl)-N-(3-methyl-4-((1-methyl-1H-benzo[d]imidazol-5-yl)oxy)phenyl)pyrimido[5,4-d]pyrimidin-4-amine 2,2,2-trifluoroacetate]	35.8 nM	–	≥ 10000 nM	–	–	27.6 nM	161 nM	2.6	–
Cc1cc(Nc2ncnc3cnc(N4CC5COC(C5)C4)nc23)ccc1Oc1ccc2c(c1)ncn2C (centres unmarked) [Example 67, 6-(6-oxa-3-azabicyclo[3.2.1]octan-3-yl)-N-(3-methyl-4-((1-methyl-1H-benzo[d]imidazol-5-yl)oxy)phenyl)pyrimido[5,4-d]pyrimidin-4-amine]	86.7 nM	15.1 nM	≥ 10000 nM	2.1	–	–	34.3 nM	–	–
Cc1cc(Nc2ncnc3cnc(N(C)CC4(O)CCC4)nc23)ccc1Oc1ccc2c(c1)ncn2C [Example 164, 1-((methyl(8-((3-methyl-4-((1-methyl-1H-benzo[d]imidazol-5-yl)oxy)phenyl)amino)pyrimido[5,4-d]pyrimidin-2-yl)amino)methyl)cyclobutan-1-ol]	9 nM	28 nM	≥ 10000 nM	–	≥ 5000 nM	–	52.3 nM	–	2.2
Cc1cc(Nc2ncnc3cnc(N(C)CC(C)(C)O)nc23)ccc1Oc1cc(F)c2c(c1)ncn2C [Example 203, 1-((8-((4-((7-fluoro-1-methyl-1H-benzo[d]imidazol-5-yl)oxy)-3-methylphenyl)amino)pyrimido[5,4-d]pyrimidin-2-yl)(methyl)amino)-2-methylpropan-2-ol]	8.3 nM	20.3 nM	4580 nM	–	≥ 5000 nM	–	65.4 nM	–	1.9
Cc1cc(Nc2ncnc3cnc(N(C)C[C@@H](C)O)nc23)ccc1Oc1ccc2c(c1)ncn2C [Example 189, (R)-1-(methyl(8-((3-methyl-4-((1-methyl-1H-benzo[d]imidazol-5-yl)oxy)phenyl)amino)pyrimido[5,4-d]pyrimidin-2-yl)amino)propan-2-ol]	13.9 nM	12.7 nM	6460 nM	4.2	≥ 5000 nM	–	–	–	–
Cc1cc(Nc2ncnc3cnc(N4CCCC5(COC5)C4)nc23)ccc1Oc1ccc2c(c1)ncn2C [Example 45, N-(3-methyl-4-((1-methyl-1H-benzo[d]imidazol-5-yl)oxy)phenyl)-6-(2-oxa-6-azaspiro[3.5]nonan-6-yl)pyrimido[5,4-d]pyrimidin-4-amine]	56.2 nM	31 nM	4740 nM	–	–	–	25 nM	2.2	–
Cc1cc(Nc2ncnc3cnc(N4CC(C)(O)CO4)nc23)ccc1Oc1ccc2c(c1)ncn2C (centres unmarked) [Example 191, 4-methyl-2-(8-((3-methyl-4-((1-methyl-1H-benzo[d]imidazol-5-yl)oxy)phenyl)amino)pyrimido[5,4-d]pyrimidin-2-yl)isoxazolidin-4-ol]	36.4 nM	33 nM	≥ 10000 nM	36.5	≥ 5000 nM	–	–	–	–
Cc1cc(Nc2ncnc3cnc(N4CC[C@@H](C)C4=O)nc23)ccc1Oc1ccc2c(c1)ncn2C [Example 51, (R)-3-methyl-1-(8-((3-methyl-4-((1-methyl-1H-benzo[d]imidazol-5-yl)oxy)phenyl)amino)pyrimido[5,4-d]pyrimidin-2-yl)pyrrolidin-2-one]	52.1 nM	41.1 nM	≥ 10000 nM	4.4	–	–	79.3 nM	–	–
